26 molecules from ChEMBL document CHEMBL1144481, “Cholinesterase inhibitors: SAR and enzyme inhibitory activity of 3-[omega-(benzylmethylamino)alkoxy]xanthen-9-ones” (Bioorg Med Chem, 2007) can be followed below.

Molecules are shown by their SMILES.

By IC50 is commonly meant the point on the concentration scale where inhibition reaches its midpoint. Higher therefore signals weaker potency in that assay.

Acetylcholinesterase, sequence (P22303 whole entry): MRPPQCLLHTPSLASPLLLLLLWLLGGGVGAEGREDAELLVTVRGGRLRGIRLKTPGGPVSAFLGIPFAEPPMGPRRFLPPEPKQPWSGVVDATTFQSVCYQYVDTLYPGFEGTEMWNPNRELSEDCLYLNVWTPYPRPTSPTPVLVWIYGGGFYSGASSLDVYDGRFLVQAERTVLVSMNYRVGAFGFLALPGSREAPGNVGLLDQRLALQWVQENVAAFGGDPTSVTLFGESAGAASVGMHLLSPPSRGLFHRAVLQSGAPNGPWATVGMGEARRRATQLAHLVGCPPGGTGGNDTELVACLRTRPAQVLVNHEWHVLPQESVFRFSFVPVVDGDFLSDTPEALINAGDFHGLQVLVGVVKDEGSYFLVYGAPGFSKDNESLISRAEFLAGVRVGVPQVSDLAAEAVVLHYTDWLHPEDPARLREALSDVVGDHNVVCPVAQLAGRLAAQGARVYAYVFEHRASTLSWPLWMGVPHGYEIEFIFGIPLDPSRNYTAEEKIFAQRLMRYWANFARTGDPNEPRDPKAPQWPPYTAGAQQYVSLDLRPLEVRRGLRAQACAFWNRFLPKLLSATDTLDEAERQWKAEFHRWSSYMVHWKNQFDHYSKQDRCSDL
Cholinesterase, sequence (P06276 whole entry): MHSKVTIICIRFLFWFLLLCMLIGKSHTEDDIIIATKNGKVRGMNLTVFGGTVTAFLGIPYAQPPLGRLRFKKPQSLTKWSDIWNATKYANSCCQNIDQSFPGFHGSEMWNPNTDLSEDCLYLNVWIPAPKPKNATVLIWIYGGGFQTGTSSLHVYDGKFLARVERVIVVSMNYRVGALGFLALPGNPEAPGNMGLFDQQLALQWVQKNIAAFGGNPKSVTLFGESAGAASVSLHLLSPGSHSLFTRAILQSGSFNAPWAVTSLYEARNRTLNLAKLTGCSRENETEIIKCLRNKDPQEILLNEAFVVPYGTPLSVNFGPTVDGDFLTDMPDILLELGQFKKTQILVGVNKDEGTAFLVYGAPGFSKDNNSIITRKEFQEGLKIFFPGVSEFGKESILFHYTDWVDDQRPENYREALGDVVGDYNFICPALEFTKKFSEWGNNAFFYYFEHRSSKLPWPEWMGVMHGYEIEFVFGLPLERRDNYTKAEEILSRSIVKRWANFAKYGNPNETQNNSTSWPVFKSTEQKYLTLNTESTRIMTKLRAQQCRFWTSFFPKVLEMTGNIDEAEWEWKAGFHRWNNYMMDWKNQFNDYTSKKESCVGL

One assay addresses Cholinesterase (Homo sapiens, UniProt P06276). As to the kind of experiment: Inhibition of human serum BuChE.
As for `CCN(CCCCCCCOc1ccc2c(=O)c3ccccc3oc2c1)Cc1ccccc1OC`, half-maximal inhibition (IC50) required 0.32 µM.
Take `CN(CCCCCCCOc1ccc2c(=O)c3ccccc3oc2c1)Cc1ccccc1[N+](=O)[O-]`: the IC50 was 14 µM.
Molecule `Cc1ccccc1CN(C)CCCCCCCOc1ccc2c(=O)c3ccccc3oc2c1` returned an IC50 of 29.5 µM.
As for `CN(CCCCCCCOc1ccc2c(=O)c3ccccc3oc2c1)Cc1ccccc1Cl`, half-maximal inhibition (IC50) was put at 269 µM.
`COc1ccc(CN(C)CCCCCCCOc2ccc3c(=O)c4ccccc4oc3c2)cc1` came in with an IC50 of 2.11 µM.
`CN(CCCOc1ccc2c(=O)c3ccccc3oc2c1)Cc1ccccc1` had an IC50 of 8.33 µM.
The same measure, in the same setting: under `COc1cccc(CN(C)CCCCCCCOc2ccc3c(=O)c4ccccc4oc3c2)c1` stands 1.85 µM.
In turn, `CN(CCCCCOc1ccc2c(=O)c3ccccc3oc2c1)Cc1ccccc1` returned an IC50 of 2.49 µM.
Still for that read-out and setting: with `COc1ccccc1CN(C)CCCCCCCOc1ccc2c(=O)c3ccccc3oc2c1` the figure was 0.93 µM; with `COc1ccc2c(=O)c3ccc(OCCCCCCCN(C)Cc4ccccc4)cc3oc2c1`, 46.1 µM; with `COc1cc2oc3cc(OCCCCCCCN(C)Cc4ccccc4)ccc3c(=O)c2cc1OC`, 3.08 µM.
`COc1ccc(CN(C)CCCCCCCOc2ccc3c(=O)c4ccccc4oc3c2)c(OC)c1OC` showed a half-maximal inhibitory concentration (IC50) of 1 µM.
The same measure, in the same setting: under `CN(CCCCOc1ccc2c(=O)c3ccccc3oc2c1)Cc1ccccc1` stands 2.65 µM; under `COc1cccc(CN(C)CCCCCCCOc2ccc3c(=O)c4ccccc4oc3c2)c1OC`, 2.01 µM.
Turning to `CN(CCCCCCCOc1ccc2c(=O)c3ccccc3oc2c1)Cc1ccc(Cl)cc1`, the IC50 was found to be 127 µM.
As to `CN(CCCCCCCOc1ccc2c(=O)c3ccccc3oc2c1)Cc1cccc(Cl)c1`, inhibition was half-maximal at 63.8 µM (IC50).
Take `CN(CCCCCCCOc1ccc2c(=O)c3ccccc3oc2c1)Cc1ccccc1`: half-maximal inhibition (IC50) required 0.8 µM.
The same measure, in the same setting: under `COc1ccc(OC)c(CN(C)CCCCCCCOc2ccc3c(=O)c4ccccc4oc3c2)c1` stands 1.27 µM; under `CN(CCCCCCOc1ccc2c(=O)c3ccccc3oc2c1)Cc1ccccc1`, 1.43 µM; under `COc1ccccc1CN(C)CCCOc1ccc2c(=O)c3ccccc3oc2c1`, 1.91 µM.
The same measure, in the same setting: under `CN(CCCCCCCCOc1ccc2c(=O)c3ccccc3oc2c1)Cc1ccccc1` stands 0.08 µM.

The next assay is filed under the species Homo sapiens. The experiment in a line: Ratio of IC50 for AchE to IC50 for BuChE.
For `CCN(CCCCCCCOc1ccc2c(=O)c3ccccc3oc2c1)Cc1ccccc1OC`, the Ratio IC50 came to 9.8.
Same read-out and setting: with `CN(CCCCCCCOc1ccc2c(=O)c3ccccc3oc2c1)Cc1ccccc1[N+](=O)[O-]` the figure was 29.5.
Still for that read-out and setting: with `Cc1ccccc1CN(C)CCCCCCCOc1ccc2c(=O)c3ccccc3oc2c1` the figure was 19.1; with `CN(CCCCCCCCCCCCOc1ccc2c(=O)c3ccccc3oc2c1)Cc1ccccc1`, 6050; with `CN(CCCCCCCOc1ccc2c(=O)c3ccccc3oc2c1)Cc1ccccc1Cl`, 1.6.
On to `CN(CCCCCCCCCCCOc1ccc2c(=O)c3ccccc3oc2c1)Cc1ccccc1`, for which the Ratio IC50 came out at 5220.
As for `COc1ccc(CN(C)CCCCCCCOc2ccc3c(=O)c4ccccc4oc3c2)cc1`, the Ratio IC50 stood at 171.
On to `CN(CCCOc1ccc2c(=O)c3ccccc3oc2c1)Cc1ccccc1`, for which the Ratio IC50 is 0.32.
The same measure, in the same setting: with `COc1cccc(CN(C)CCCCCCCOc2ccc3c(=O)c4ccccc4oc3c2)c1` the figure was 21.6; with `CN(CCCCCOc1ccc2c(=O)c3ccccc3oc2c1)Cc1ccccc1`, 3.12.
As to `COc1ccccc1CN(C)CCCCCCCOc1ccc2c(=O)c3ccccc3oc2c1`, the Ratio IC50 was determined as 2.34.
Consider `COc1ccc2c(=O)c3ccc(OCCCCCCCN(C)Cc4ccccc4)cc3oc2c1`, for which the Ratio IC50 was 0.17.
On the same count and under the same terms, with `COc1cc2oc3cc(OCCCCCCCN(C)Cc4ccccc4)ccc3c(=O)c2cc1OC` the figure was 0.75; with `CN(CCCCCCCCCCOc1ccc2c(=O)c3ccccc3oc2c1)Cc1ccccc1`, 3880.
The same measure, in the same setting: with `COc1ccc(CN(C)CCCCCCCOc2ccc3c(=O)c4ccccc4oc3c2)c(OC)c1OC` the figure was 155; with `CN(CCCCOc1ccc2c(=O)c3ccccc3oc2c1)Cc1ccccc1`, 2.36; with `COc1cccc(CN(C)CCCCCCCOc2ccc3c(=O)c4ccccc4oc3c2)c1OC`, 68.7.
`CN(CCCCCCCCCOc1ccc2c(=O)c3ccccc3oc2c1)Cc1ccccc1`: the Ratio IC50 is 1520.
For the molecule `CNC(=O)Oc1cccc(CN(C)CCCCCCCOc2ccc3c(=O)c4ccccc4oc3c2)c1`, the Ratio IC50 was 0.019.
`CN(CCCCCCCOc1ccc2c(=O)c3ccccc3oc2c1)Cc1ccc(Cl)cc1`: the Ratio IC50 amounted to 8.26.
On to `CN(CCCCCCCOc1ccc2c(=O)c3ccccc3oc2c1)Cc1cccc(Cl)c1`, for which the Ratio IC50 came out at 9.3.
`CN(CCCCCCCOc1ccc2c(=O)c3ccccc3oc2c1)Cc1ccccc1`: the Ratio IC50 was 3.52.
With `COc1ccc(OC)c(CN(C)CCCCCCCOc2ccc3c(=O)c4ccccc4oc3c2)c1`, the Ratio IC50 was 100.
`CN(CCCCCCOc1ccc2c(=O)c3ccccc3oc2c1)Cc1ccccc1`: the Ratio IC50 was 2.02.
In the case of `COc1ccccc1CN(C)CCCOc1ccc2c(=O)c3ccccc3oc2c1`, the Ratio IC50 was 1.78.
With `CN(CCCCCCCCOc1ccc2c(=O)c3ccccc3oc2c1)Cc1ccccc1`, the Ratio IC50 is 129.

Another assay concerns the target Acetylcholinesterase (Homo sapiens, UniProt P22303). As to the kind of experiment: Inhibition of human erythrocyte AchE.
In turn, `CCN(CCCCCCCOc1ccc2c(=O)c3ccccc3oc2c1)Cc1ccccc1OC` registered an IC50 of 3.15 µM.
Molecule `CN(CCCCCCCOc1ccc2c(=O)c3ccccc3oc2c1)Cc1ccccc1[N+](=O)[O-]` yielded an IC50 of 413 µM.
Still for that read-out and setting: under `Cc1ccccc1CN(C)CCCCCCCOc1ccc2c(=O)c3ccccc3oc2c1` stands 565 µM; under `CN(CCCCCCCOc1ccc2c(=O)c3ccccc3oc2c1)Cc1ccccc1Cl`, 433 µM; under `COc1ccc(CN(C)CCCCCCCOc2ccc3c(=O)c4ccccc4oc3c2)cc1`, 360 µM.
For the molecule `CN(CCCOc1ccc2c(=O)c3ccccc3oc2c1)Cc1ccccc1`, it took 2.68 µM to reach half-maximal inhibition (IC50).
Still for that read-out and setting: with `COc1cccc(CN(C)CCCCCCCOc2ccc3c(=O)c4ccccc4oc3c2)c1` the figure was 40 µM; with `CN(CCCCCOc1ccc2c(=O)c3ccccc3oc2c1)Cc1ccccc1`, 7.78 µM.
`COc1ccccc1CN(C)CCCCCCCOc1ccc2c(=O)c3ccccc3oc2c1` showed an IC50 of 2.18 µM.
`COc1ccc2c(=O)c3ccc(OCCCCCCCN(C)Cc4ccccc4)cc3oc2c1` returned an IC50 of 7.84 µM.
On to `COc1cc2oc3cc(OCCCCCCCN(C)Cc4ccccc4)ccc3c(=O)c2cc1OC`, for which it took 2.32 µM to reach half-maximal inhibition (IC50).
The molecule `COc1ccc(CN(C)CCCCCCCOc2ccc3c(=O)c4ccccc4oc3c2)c(OC)c1OC` had an IC50 of 155 µM.
For `CN(CCCCOc1ccc2c(=O)c3ccccc3oc2c1)Cc1ccccc1`, the IC50 came to 6.25 µM.
Same read-out and setting: with `COc1cccc(CN(C)CCCCCCCOc2ccc3c(=O)c4ccccc4oc3c2)c1OC` the figure was 138 µM.
The molecule `CN(CCCCCCCOc1ccc2c(=O)c3ccccc3oc2c1)Cc1ccc(Cl)cc1` gave an IC50 of 1050 µM.
`CN(CCCCCCCOc1ccc2c(=O)c3ccccc3oc2c1)Cc1cccc(Cl)c1` had an IC50 of 594 µM.
Same read-out and setting: under `CN(CCCCCCCOc1ccc2c(=O)c3ccccc3oc2c1)Cc1ccccc1` stands 2.82 µM.
Turning to `COc1ccc(OC)c(CN(C)CCCCCCCOc2ccc3c(=O)c4ccccc4oc3c2)c1`, the IC50 came out at 127 µM.
Molecule `CN(CCCCCCOc1ccc2c(=O)c3ccccc3oc2c1)Cc1ccccc1` registered an IC50 of 2.89 µM.
`COc1ccccc1CN(C)CCCOc1ccc2c(=O)c3ccccc3oc2c1` came in with an IC50 of 3.4 µM.
Consider `CN(CCCCCCCCOc1ccc2c(=O)c3ccccc3oc2c1)Cc1ccccc1`, for which the IC50 came to 10.3 µM.

For a further assay, the species on record is Homo sapiens. The experiment in a line: Ratio of IC50 for BuChE to IC50 for AchE.
As to `CCN(CCCCCCCOc1ccc2c(=O)c3ccccc3oc2c1)Cc1ccccc1OC`, the Ratio IC50 was found to be 0.1.
In the case of `CN(CCCCCCCOc1ccc2c(=O)c3ccccc3oc2c1)Cc1ccccc1[N+](=O)[O-]`, the Ratio IC50 stood at 0.03.
Regarding `Cc1ccccc1CN(C)CCCCCCCOc1ccc2c(=O)c3ccccc3oc2c1`, the Ratio IC50 amounted to 0.05.
For `CN(CCCCCCCOc1ccc2c(=O)c3ccccc3oc2c1)Cc1ccccc1Cl`, the Ratio IC50 turned out to be 0.62.
Consider `COc1ccc(CN(C)CCCCCCCOc2ccc3c(=O)c4ccccc4oc3c2)cc1`, for which the Ratio IC50 was 0.006.
`CN(CCCOc1ccc2c(=O)c3ccccc3oc2c1)Cc1ccccc1`: the Ratio IC50 turned out to be 3.11.
In the case of `COc1cccc(CN(C)CCCCCCCOc2ccc3c(=O)c4ccccc4oc3c2)c1`, the Ratio IC50 was 0.05.
As for `CN(CCCCCOc1ccc2c(=O)c3ccccc3oc2c1)Cc1ccccc1`, the Ratio IC50 was 0.32.
With `COc1ccccc1CN(C)CCCCCCCOc1ccc2c(=O)c3ccccc3oc2c1`, the Ratio IC50 is 0.43.
For the molecule `COc1ccc2c(=O)c3ccc(OCCCCCCCN(C)Cc4ccccc4)cc3oc2c1`, the Ratio IC50 amounted to 5.9.
In the case of `COc1cc2oc3cc(OCCCCCCCN(C)Cc4ccccc4)ccc3c(=O)c2cc1OC`, the Ratio IC50 was 1.33.
On to `COc1ccc(CN(C)CCCCCCCOc2ccc3c(=O)c4ccccc4oc3c2)c(OC)c1OC`, for which the Ratio IC50 worked out at 0.006.
For `CN(CCCCOc1ccc2c(=O)c3ccccc3oc2c1)Cc1ccccc1`, the Ratio IC50 is 0.42.
As to `COc1cccc(CN(C)CCCCCCCOc2ccc3c(=O)c4ccccc4oc3c2)c1OC`, the Ratio IC50 was 0.014.
For the molecule `CNC(=O)Oc1cccc(CN(C)CCCCCCCOc2ccc3c(=O)c4ccccc4oc3c2)c1`, the Ratio IC50 came out at 51.6.
As to `CN(CCCCCCCOc1ccc2c(=O)c3ccccc3oc2c1)Cc1ccc(Cl)cc1`, the Ratio IC50 came to 0.12.
Regarding `CN(CCCCCCCOc1ccc2c(=O)c3ccccc3oc2c1)Cc1cccc(Cl)c1`, the Ratio IC50 is 0.1.
Take `CN(CCCCCCCOc1ccc2c(=O)c3ccccc3oc2c1)Cc1ccccc1`: the Ratio IC50 was 0.28.
Take `COc1ccc(OC)c(CN(C)CCCCCCCOc2ccc3c(=O)c4ccccc4oc3c2)c1`: the Ratio IC50 is 0.01.
`CN(CCCCCCOc1ccc2c(=O)c3ccccc3oc2c1)Cc1ccccc1`: the Ratio IC50 is 0.49.
In the case of `COc1ccccc1CN(C)CCCOc1ccc2c(=O)c3ccccc3oc2c1`, the Ratio IC50 is 0.56.
The same measure, in the same setting: with `CN(CCCCCCCCOc1ccc2c(=O)c3ccccc3oc2c1)Cc1ccccc1` the figure was 0.008.
